Results: patent US20220047569A1, “METHOD AND COMPOUND FOR USE, IN TREATING AND/OR PREVENTING NETOSIS” (Jubilant EpiPad LLC, priority 2020, published 2022)

Tested on: NETosis in human neutrophils
Test: NETosis assay (SYTOX green, flow cytometry)
Format: cell-based
Details: Neutrophil, two independent NETosis assays, read-out: Average percent inhibition
Protocol: Neutrophils were isolated according to the EasySep Direct Human Neutrophil Isolation Kit. In short, 50 mL of blood sample was drawn in a vacutainer containing K2EDTA from a healthy donor. To the whole blood, the isolation cocktail of 50 μL/mL was added. Then, in the next step 50 μL/mL of RapidSpheres™ was added to the sample. The sample was mixed evenly with the pipette and incubated for 10 minutes at room temperature. After incubation, PBS containing 1 mM EDTA was added at the ratio of 1:1 to the blood. Then the sample tube was incubated for 10 minutes. The enriched cell suspension was transferred into a new tube and RapidSpheres™ were added at 50 μL/mL to this suspension, mixed and incubated for 10 minutes at room temperature. At this step, the enriched cell suspension was carefully collected as a clear fraction into a fresh tube. Then, previous tube was replaced with the fresh tube containing enriched cell suspension. After the final separation, the clear solution of enriched cell suspension was carefully transferred to fresh tube which was ready to use for the experiment. These cells were then subjected to wash twice with plain RPMI 1640 media without Fetal Bovine Serum (FBS) and centrifuged at 1500 rpm for 5 minutes at room temperature. Cell counts were performed on each sample by Invitrogen cell counter. After the cell count, cell density was adjusted according to the experiment and re-suspended in complete RPMI media containing RPMI1640, 2% BSA and 1 mM CaCl2.
Freshly isolated neutrophils from human donor were seeded at a density of 0.5×10^6 cells in 400 μL cell suspension/well in a 24-well plate and cells were pre-incubated with the compound for 30 minutes by adding 50 μL of the 10× concentration to achieve the final 1× concentration of compound (10 μM, 1 μM and 0.1 μM). 1% DMSO was added in control wells. […]
Average percent inhibition for compound 143 was calculated as 2% at 0.1 μM, 30% at 1 μM and 85% at 10 μM in two independent NETosis assays using human neutrophils.

N[C@@H]1CCCN(C(=O)c2cc3c4c(c2)nc(-c2cc5cccc(Cl)c5n2CC2CC2)n4CCO3)C1 [Compound 143, (R)-(3-aminopiperidin-1-yl)(2-(7-chloro-1-(cyclopropylmethyl)-1H-indol-2-yl)-3,4-dihydro-5-oxa-1,2a-diazaacenaphthylen-7-yl)methanone]
inhibition at 0.1 µM (at 0.1 μM): 2% | inhibition at 1 µM (at 1 μM): 30% | inhibition at 10 µM (at 10 μM): 85%
